Assay results: ChEMBL document CHEMBL1201862, “PubChem BioAssay data set” (2004)
Calls of active or inactive are those of the source.

How the values were obtained:
[1] = A Cell Based Secondary Assay To Explore Cytotoxicity of Compounds that Sensitize Mycobacterium Tuberculosis to Beta-Lactam Antibiotics.; type: functional
[2] = biological target: T1, Polyadenylate-binding protein 1 (Homo sapiens, UniProt P11940); assay: PABP1 MLLE–PAM2 interaction inhibitors, dose response, miRNA deadenylation inhibitor project, biochemical, fluorescence polarization, Cy5-PAM2 peptide, secondary (AID 602260); type: functional; settings: read-out: IC50_Mean
[3] = biological target: T1, Polyadenylate-binding protein 1; assay: PABP1 MLLE–PAM2 binding inhibitor potency, dose response, biochemical, fluorescence polarization, FITC-PAM2 peptide (AID 602259); type: functional; settings: read-out: IC50_Mean
[4] = NIH-3T3 fibroblast cytotoxicity, dose response, cytotoxicity control, cell-based, fluorescence, Alamar Blue, secondary assay (AID 2327); type: functional;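 further: NIH-3T3 mouse fibroblasts cultured with fluconazole at 8 µg/mL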
[5] = biological target: Transitional endoplasmic reticulum ATPase (Homo sapiens, UniProt P55072, C522A); assay: C522A mutant p97 ATPase inhibitors, dose response, counter-screen for p97 inhibitor project, biochemical, luminescence (AID 1544)
[6] = C. albicans growth with fluconazole, confirmation, fluorescence, retest (AID 2467); type: functional, cell-based
[7] = biological target: Transitional endoplasmic reticulum ATPase (Homo sapiens, UniProt P55072); assay: p97 ATPase inhibitors, dose response, biochemical (AID 1534)
[8] = biological target: T2, Microphthalmia-associated transcription factor (Homo sapiens, UniProt O75030); assay: TRPM1 promoter luciferase signal decrease, dose response, MITF inhibitor project, cell-based, SK-MEL-5, cherry-picked, set 3 (AID 493073); type: functional
T2 sequence (O75030 whole entry): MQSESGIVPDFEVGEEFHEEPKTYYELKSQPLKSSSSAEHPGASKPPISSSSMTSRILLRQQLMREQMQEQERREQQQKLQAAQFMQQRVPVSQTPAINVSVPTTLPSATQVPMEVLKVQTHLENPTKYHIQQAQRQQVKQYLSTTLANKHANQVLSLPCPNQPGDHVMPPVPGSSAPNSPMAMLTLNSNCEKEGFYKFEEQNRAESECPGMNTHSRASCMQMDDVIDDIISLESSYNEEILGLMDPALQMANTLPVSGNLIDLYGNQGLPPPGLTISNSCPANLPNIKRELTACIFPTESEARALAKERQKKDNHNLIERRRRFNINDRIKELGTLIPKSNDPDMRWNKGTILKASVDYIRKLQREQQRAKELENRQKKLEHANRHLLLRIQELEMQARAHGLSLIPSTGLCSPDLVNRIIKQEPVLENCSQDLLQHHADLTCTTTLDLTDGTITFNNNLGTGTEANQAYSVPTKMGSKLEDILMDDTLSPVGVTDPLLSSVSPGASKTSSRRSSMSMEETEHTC

[9] = biological target: T3, RNA-binding protein pos-1 (Caenorhabditis elegans, UniProt G5EF15); assay: inhibitors of POS-1/mex-3 RNA binding, dose response, biochemical, fluorescence polarization (AID 1964);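 further: purified POS-1 fused to maltose binding protein made in E. coli; potency of compounds blocking POS-1 binding to fluorescent RNA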
T3 sequence (G5EF15 whole entry): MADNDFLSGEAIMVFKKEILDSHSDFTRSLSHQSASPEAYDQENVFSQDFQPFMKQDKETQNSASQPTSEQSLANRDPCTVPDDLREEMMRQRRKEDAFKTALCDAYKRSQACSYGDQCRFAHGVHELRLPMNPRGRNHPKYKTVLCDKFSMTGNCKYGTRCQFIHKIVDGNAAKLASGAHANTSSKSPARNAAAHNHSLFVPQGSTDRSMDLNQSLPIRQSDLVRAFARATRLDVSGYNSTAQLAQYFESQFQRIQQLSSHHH

[10] = biological target: T4, SUMO-activating enzyme (Homo sapiens, UniProt Q9UBT2); assay: SUMOylation inhibitor hit validation, confirmation, SUMOylation inhibitor project, biochemical, AlphaScreen (AID 2018); type: functional
[11] = biological target: T5, Zinc finger protein mex-5 (Caenorhabditis elegans, UniProt Q9XUB2); assay: MEX-5/TCR-2 RNA interaction inhibitors, dose response, biochemical, C. elegans, fluorescence polarization (AID 1960)
T5 sequence (Q9XUB2 whole entry): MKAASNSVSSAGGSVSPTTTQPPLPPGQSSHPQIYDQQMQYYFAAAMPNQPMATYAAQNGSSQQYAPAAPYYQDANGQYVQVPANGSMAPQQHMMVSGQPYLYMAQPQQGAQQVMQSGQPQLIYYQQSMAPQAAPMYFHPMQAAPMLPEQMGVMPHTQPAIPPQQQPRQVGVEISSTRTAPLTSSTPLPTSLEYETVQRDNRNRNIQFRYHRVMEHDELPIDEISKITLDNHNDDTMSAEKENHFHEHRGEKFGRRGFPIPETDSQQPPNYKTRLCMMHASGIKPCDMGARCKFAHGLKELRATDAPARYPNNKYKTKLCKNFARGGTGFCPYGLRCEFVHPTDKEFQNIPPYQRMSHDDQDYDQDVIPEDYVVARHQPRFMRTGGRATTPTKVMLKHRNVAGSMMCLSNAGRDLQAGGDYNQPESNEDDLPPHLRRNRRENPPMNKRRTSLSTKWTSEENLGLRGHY

[12] = biological target: T6, Mannose-6-phosphate isomerase (Homo sapiens, UniProt P34949); assay: inhibitors of human PMI, primary screen, biochemical, fluorescence intensity, coupled assay (AID 1209)
T6 sequence (P34949 whole entry): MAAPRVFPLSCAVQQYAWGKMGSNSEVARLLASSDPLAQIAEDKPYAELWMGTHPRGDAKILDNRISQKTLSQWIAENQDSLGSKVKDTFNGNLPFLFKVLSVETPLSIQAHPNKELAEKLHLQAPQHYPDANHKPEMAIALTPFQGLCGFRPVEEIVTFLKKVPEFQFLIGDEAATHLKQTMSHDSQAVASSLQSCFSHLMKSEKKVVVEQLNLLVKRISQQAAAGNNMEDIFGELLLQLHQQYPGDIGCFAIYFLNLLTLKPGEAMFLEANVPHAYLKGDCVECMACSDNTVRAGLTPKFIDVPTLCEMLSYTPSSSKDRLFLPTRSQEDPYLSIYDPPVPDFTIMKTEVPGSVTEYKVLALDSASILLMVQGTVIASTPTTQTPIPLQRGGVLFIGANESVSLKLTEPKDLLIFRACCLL

[13] = biological target: T4, SUMO-activating enzyme; assay: inhibitors of in vitro SUMOylation cascade, primary screen, biochemical, HTRF, uHTS (AID 2006); type: protein-complex assay
[14] = growth suppression of PTEN-null colon cells, dose response, cell-based, HCT116 PTEN knockout (AID 1047); type: functional;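 further: HCT116 colon tumor cells with PTEN knocked out; cells exposed to compound for 60 hours before readout; potency for loss of cell viability measured by luminescence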
[15] = growth suppression of beta-catenin-knockout colon cells, dose response, cell-based, HCT116, human colon tumor (AID 1045); type: functional;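 further: HCT116 colon tumor cells with beta catenin knocked out; cells exposed to compound for 60 hours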
[16] = biological target: T6, Mannose-6-phosphate isomerase; assay: human PMI inhibitors, high substrate, primary screen, biochemical, fluorescence intensity, high mannose 6-phosphate (AID 1220)
[17] = Luminescence Cell-Based Dose Retest to Confirm Inhibitors of Cancer Stem Cells. [Related pubchem assays (depositor defined):AID2717, AID2721]; type: functional; settings: Homo sapiens
[18] = system: H9c2; assay: cells; type: functional, cell-based; settings: Rattus norvegicus, H9c2, Myocardium;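 further: confirmatory concentration-response retest of ultra-high-throughput screening hits for modulation of myocardial damage; cell death induced by hydrogen peroxide oxidative stress; compound pretreatment for 60 min then peroxide exposure for 2 h; potency is for protecting the cells against peroxide damage rather than for killing them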
[19] = system: Vero; assay: cells; type: functional; settings: Chlorocebus sabaeus
[20] = enhancers of respiration in Yfh1-depleted yeast, dose response, Friedreich's ataxia, plus single-dose screen (AID 1465); type: functional;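 further: yeast depleted of Yfh1p frataxin homolog grown on glycerol needing respiration; WST-1 tetrazolium dye reduction as measure of cellular dehydrogenase metabolic activity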

T4 sequence (Q9UBE0 whole entry): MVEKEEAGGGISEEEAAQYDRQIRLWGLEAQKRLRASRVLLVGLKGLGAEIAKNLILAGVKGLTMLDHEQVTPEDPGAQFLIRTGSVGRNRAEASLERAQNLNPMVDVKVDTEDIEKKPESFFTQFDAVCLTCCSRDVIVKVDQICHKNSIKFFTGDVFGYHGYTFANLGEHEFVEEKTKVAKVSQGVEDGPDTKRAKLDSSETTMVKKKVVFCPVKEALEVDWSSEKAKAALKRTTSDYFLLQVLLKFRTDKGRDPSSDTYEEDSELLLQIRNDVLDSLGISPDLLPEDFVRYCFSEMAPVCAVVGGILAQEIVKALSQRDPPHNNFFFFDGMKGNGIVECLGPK
T4 sequence (Q9UBT2 whole entry): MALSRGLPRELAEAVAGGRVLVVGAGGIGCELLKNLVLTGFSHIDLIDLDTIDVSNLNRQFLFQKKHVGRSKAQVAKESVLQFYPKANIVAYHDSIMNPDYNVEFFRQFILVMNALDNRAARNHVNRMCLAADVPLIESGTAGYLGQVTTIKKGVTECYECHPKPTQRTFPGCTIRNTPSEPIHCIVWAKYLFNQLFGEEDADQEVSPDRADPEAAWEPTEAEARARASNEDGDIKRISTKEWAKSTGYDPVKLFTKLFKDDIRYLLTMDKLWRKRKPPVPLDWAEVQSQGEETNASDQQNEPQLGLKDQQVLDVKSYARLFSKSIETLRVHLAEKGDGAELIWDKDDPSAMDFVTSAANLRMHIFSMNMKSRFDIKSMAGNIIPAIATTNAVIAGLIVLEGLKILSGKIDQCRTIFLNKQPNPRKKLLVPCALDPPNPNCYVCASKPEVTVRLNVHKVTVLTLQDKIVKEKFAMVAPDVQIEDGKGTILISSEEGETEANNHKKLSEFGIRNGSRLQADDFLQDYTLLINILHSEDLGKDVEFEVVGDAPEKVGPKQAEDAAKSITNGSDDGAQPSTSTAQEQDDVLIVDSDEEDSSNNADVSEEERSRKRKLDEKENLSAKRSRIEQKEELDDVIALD
T1 sequence (P11940 whole entry): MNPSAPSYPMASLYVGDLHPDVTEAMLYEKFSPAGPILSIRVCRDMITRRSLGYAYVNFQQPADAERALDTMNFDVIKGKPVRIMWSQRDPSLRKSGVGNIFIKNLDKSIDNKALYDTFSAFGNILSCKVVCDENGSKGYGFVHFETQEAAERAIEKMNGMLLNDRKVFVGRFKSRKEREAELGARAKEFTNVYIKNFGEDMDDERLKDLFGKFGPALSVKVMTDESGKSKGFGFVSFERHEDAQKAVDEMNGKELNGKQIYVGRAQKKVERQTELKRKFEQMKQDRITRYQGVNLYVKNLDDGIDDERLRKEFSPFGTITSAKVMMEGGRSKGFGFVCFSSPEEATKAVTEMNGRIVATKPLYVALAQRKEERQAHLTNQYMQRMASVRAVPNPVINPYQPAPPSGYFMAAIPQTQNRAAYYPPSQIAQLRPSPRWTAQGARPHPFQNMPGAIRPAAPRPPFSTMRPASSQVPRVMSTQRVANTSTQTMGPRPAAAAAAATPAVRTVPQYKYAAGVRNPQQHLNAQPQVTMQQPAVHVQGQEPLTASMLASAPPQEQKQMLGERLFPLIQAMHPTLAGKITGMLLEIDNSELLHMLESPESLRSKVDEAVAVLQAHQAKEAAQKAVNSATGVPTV
Chain of Transitional endoplasmic reticulum ATPase (Homo sapiens, UniProt P55072) (P55072 whole entry): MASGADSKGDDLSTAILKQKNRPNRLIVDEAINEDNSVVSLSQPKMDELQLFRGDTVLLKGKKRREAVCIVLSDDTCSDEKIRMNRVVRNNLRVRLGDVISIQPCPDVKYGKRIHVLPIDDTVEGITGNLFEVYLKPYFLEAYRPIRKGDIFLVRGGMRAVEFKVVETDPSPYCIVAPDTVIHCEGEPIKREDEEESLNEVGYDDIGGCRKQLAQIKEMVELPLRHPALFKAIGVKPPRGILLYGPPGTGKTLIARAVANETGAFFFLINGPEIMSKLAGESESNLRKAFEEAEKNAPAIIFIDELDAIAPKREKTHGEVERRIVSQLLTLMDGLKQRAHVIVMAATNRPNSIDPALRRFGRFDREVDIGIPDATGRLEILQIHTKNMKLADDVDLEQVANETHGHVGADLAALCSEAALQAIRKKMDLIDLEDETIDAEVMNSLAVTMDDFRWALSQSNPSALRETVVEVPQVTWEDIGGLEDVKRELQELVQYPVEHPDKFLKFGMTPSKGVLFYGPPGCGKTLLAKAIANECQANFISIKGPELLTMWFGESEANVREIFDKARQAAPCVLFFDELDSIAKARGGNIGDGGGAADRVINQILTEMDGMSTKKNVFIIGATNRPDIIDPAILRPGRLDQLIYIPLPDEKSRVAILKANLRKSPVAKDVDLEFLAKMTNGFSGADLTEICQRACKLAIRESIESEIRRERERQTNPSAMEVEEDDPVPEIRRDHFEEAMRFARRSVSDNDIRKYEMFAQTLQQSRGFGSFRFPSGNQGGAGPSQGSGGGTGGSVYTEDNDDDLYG
Chain of Transitional endoplasmic reticulum ATPase (Homo sapiens, UniProt P55072, C522A) (P55072 2-806 C522A limits assumed): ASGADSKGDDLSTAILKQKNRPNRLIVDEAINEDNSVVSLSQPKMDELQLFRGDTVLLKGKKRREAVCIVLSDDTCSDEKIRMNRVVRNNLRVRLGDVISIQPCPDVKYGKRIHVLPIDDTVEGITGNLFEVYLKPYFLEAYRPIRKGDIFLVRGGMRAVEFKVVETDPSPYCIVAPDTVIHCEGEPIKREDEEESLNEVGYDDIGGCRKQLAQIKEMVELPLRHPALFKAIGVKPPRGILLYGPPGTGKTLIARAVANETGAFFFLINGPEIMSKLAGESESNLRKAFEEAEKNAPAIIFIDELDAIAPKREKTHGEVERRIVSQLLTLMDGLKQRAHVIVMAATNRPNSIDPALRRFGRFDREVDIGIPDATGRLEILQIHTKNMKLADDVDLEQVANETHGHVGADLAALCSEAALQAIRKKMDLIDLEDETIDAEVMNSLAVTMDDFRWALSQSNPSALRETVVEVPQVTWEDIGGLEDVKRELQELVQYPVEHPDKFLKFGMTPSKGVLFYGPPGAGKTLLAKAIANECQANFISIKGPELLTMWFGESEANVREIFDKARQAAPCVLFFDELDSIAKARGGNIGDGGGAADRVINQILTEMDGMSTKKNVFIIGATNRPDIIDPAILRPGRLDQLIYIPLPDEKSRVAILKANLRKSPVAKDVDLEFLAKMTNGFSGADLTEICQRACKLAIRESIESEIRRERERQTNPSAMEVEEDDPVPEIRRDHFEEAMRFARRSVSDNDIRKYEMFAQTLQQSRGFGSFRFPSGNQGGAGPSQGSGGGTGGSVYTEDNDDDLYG

Cc1noc(/C=C/Nc2ccc(F)cc2F)c1[N+](=O)[O-]
CC50 [1]: 39 µM (active)
IC50 [2]: 35.7 µM (inactive)
IC50 [3]: 27.5 µM (inactive)

Cc1[nH]c2ccccc2c1C(=O)CCl
EC50 [4]: 8.72 µM (inconclusive)
IC50 [5]: > 50 µM (not active)
EC50 [6]: 0.497 µM (active)
IC50 [7]: > 50 µM (not active)
AC50 [8]: 6.78 µM (active)

CCOC(=O)c1c2ccc(OCC(=O)N/N=C/c3ccc(C)cc3)cc2n2ccccc12
EC50 [9]: > 300 µM (not active)
IC50 [10]: 17.9 µM (active)
EC50 [11]: > 300 µM (not active)
IC50 [12]: > 50 µM (not active)
IC50 [13]: 7.01 µM (active)
EC50 [14]: 5.25 µM (active)
EC50 [15]: 6.24 µM (active)
IC50 [16]: 13.1 µM (active)
AC50 [17]: 5.11 µM (active)
IC50 [18]: 40.5 µM (inactive)
CC50 [19]: > 25 µM (active)

Sc1nnc(CSCc2ccc(Cl)cc2Cl)n1-c1ccccc1
EC50 [20]: > 100 µM (active)

Cc1ccccc1C(=O)Nc1nc2c(C)csc2c(=O)s1
IC50 [5]: > 50 µM (not active)
IC50 [7]: > 50 µM (not active)

O=C1CNC(=S)N1CCc1ccc(Cl)cc1
EC50 [20]: > 100 µM (active)
